Measurements as given in ChEMBL document CHEMBL3232845 (Bioorg Med Chem Lett, 2014).

Tests used:
[1] = target: Mitogen-activated protein kinase 14 (Homo sapiens) (UniProt Q16539); assay: Inhibition of human p38alpha assessed as enzyme activity at 1 uM relative to control; design: scale not given: the % may be the effect or the level left
[2] = target: Ribosomal protein S6 kinase beta-1 (Homo sapiens) (UniProt P23443); assay: Inhibition of human p70S6K assessed as enzyme activity at 1 uM relative to control; design: scale not given: the % may be the effect or the level left
Sequence of Ribosomal protein S6 kinase beta-1 (Homo sapiens) (P23443 whole entry, looked up): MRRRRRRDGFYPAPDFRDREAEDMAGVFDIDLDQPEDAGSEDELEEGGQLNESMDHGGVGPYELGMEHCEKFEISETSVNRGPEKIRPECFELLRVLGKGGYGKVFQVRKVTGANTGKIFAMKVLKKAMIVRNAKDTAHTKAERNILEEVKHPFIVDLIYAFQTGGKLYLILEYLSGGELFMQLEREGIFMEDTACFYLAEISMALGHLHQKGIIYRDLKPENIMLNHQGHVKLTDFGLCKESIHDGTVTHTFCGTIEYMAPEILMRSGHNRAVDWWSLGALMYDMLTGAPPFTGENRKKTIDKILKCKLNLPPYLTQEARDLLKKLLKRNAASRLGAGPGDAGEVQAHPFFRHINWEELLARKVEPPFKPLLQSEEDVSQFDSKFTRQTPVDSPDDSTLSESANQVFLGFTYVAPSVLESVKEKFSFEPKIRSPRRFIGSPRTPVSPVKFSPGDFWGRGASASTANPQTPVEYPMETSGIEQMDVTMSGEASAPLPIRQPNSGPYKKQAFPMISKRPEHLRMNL

[3] = target: Protein-tyrosine kinase 2-beta (Homo sapiens) (UniProt Q14289); assay: Inhibition of human FAK2 assessed as enzyme activity at 1 uM relative to control; design: scale not given: the % may be the effect or the level left
[4] = target: Protein kinase C delta type (Homo sapiens) (UniProt Q05655); assay: Inhibition of human PKCdelta assessed as enzyme activity at 1 uM relative to control; design: scale not given: the % may be the effect or the level left
[5] = target: Dual specificity mitogen-activated protein kinase kinase 7 (Homo sapiens) (UniProt O14733); assay: Inhibition of human MKK7 assessed as enzyme activity at 1 uM relative to control; design: scale not given: the % may be the effect or the level left
[6] = target: Casein kinase I isoform gamma-3 (Homo sapiens) (UniProt Q9Y6M4); assay: Inhibition of human CK1gamma3 assessed as enzyme activity at 1 uM relative to control; design: scale not given: the % may be the effect or the level left
[7] = target: Serine/threonine-protein kinase Nek6 (Homo sapiens) (UniProt Q9HC98); assay: Inhibition of human NEK6 assessed as enzyme activity at 1 uM relative to control; design: scale not given: the % may be the effect or the level left
Sequence of Serine/threonine-protein kinase Nek6 (Homo sapiens) (Q9HC98 whole entry): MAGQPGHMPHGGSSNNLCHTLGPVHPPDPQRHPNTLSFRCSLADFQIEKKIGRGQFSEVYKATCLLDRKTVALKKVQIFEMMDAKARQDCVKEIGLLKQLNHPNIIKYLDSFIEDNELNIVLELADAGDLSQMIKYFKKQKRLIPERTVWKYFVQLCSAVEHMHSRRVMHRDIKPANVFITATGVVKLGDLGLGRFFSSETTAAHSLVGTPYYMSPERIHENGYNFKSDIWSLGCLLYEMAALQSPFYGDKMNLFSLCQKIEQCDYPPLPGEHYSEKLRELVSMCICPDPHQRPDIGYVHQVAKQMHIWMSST

[8] = target: Serine/threonine-protein kinase BRSK2 (Homo sapiens) (UniProt Q8IWQ3); assay: Inhibition of human BrSK2 assessed as enzyme activity at 1 uM relative to control; design: scale not given: the % may be the effect or the level left
[9] = target: Eukaryotic elongation factor 2 kinase (Homo sapiens) (UniProt O00418); assay: Inhibition of human eEF-2K assessed as enzyme activity at 1 uM relative to control; design: scale not given: the % may be the effect or the level left
[10] = target: Casein kinase I isoform gamma-2 (Homo sapiens) (UniProt P78368); assay: Inhibition of human CK1gamma2 assessed as enzyme activity at 1 uM relative to control; design: scale not given: the % may be the effect or the level left
[11] = target: cGMP-dependent protein kinase 1 (Homo sapiens) (UniProt Q13976); assay: Inhibition of human PRKG1alpha assessed as enzyme activity at 1 uM relative to control; design: scale not given: the % may be the effect or the level left
Sequence of cGMP-dependent protein kinase 1 (Homo sapiens) (Q13976 whole entry): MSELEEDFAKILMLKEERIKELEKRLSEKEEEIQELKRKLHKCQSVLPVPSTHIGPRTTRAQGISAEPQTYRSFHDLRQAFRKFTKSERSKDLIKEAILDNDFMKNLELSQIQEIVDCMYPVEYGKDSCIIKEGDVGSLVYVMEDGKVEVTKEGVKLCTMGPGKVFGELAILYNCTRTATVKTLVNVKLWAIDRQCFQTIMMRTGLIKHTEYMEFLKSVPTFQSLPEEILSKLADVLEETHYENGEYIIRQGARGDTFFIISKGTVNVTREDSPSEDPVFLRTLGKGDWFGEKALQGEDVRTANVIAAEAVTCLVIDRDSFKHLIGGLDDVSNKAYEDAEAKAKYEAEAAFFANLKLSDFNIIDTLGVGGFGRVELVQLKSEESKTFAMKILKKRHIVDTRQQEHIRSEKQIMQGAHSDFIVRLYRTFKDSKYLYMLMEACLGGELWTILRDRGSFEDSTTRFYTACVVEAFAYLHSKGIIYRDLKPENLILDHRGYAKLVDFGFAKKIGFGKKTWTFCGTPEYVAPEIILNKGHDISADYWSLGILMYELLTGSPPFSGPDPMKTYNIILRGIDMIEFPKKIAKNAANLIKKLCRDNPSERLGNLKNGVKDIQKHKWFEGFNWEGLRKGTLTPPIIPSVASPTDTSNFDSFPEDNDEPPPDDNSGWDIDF

[12] = target: Tyrosine-protein kinase HCK (Homo sapiens) (UniProt P08631); assay: Inhibition of human Hck assessed as enzyme activity at 1 uM relative to control; design: scale not given: the % may be the effect or the level left
[13] = target: Mitogen-activated protein kinase 3 (Homo sapiens) (UniProt P27361); assay: Inhibition of human ERK1 assessed as enzyme activity at 1 uM relative to control; design: scale not given: the % may be the effect or the level left
[14] = target: Protein kinase C beta type (Homo sapiens) (UniProt P05771); assay: Inhibition of human PKCbeta2 assessed as enzyme activity at 1 uM relative to control; design: scale not given: the % may be the effect or the level left
[15] = target: Calcium/calmodulin-dependent protein kinase type 1 (Homo sapiens) (UniProt Q14012); assay: Inhibition of human CAMK1 assessed as enzyme activity at 1 uM relative to control; design: scale not given: the % may be the effect or the level left
Sequence of Calcium/calmodulin-dependent protein kinase type 1 (Homo sapiens) (Q14012 whole entry, looked up): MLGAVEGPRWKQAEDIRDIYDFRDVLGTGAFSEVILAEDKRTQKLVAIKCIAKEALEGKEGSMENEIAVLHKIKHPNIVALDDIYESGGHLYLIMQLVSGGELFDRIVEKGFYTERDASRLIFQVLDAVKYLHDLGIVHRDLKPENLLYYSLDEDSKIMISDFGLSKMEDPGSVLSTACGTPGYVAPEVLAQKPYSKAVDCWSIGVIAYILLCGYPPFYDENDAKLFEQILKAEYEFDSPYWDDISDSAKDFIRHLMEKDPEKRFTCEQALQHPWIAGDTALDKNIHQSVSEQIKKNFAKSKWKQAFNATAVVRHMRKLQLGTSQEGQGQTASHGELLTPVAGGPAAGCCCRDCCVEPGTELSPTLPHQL

[16] = target: Insulin-like growth factor 1 receptor (Homo sapiens) (UniProt P08069); assay: Inhibition of human IGF-1R assessed as enzyme activity at 1 uM relative to control; design: scale not given: the % may be the effect or the level left
Sequence of Insulin-like growth factor 1 receptor (Homo sapiens) (P08069 31-736 limits assumed): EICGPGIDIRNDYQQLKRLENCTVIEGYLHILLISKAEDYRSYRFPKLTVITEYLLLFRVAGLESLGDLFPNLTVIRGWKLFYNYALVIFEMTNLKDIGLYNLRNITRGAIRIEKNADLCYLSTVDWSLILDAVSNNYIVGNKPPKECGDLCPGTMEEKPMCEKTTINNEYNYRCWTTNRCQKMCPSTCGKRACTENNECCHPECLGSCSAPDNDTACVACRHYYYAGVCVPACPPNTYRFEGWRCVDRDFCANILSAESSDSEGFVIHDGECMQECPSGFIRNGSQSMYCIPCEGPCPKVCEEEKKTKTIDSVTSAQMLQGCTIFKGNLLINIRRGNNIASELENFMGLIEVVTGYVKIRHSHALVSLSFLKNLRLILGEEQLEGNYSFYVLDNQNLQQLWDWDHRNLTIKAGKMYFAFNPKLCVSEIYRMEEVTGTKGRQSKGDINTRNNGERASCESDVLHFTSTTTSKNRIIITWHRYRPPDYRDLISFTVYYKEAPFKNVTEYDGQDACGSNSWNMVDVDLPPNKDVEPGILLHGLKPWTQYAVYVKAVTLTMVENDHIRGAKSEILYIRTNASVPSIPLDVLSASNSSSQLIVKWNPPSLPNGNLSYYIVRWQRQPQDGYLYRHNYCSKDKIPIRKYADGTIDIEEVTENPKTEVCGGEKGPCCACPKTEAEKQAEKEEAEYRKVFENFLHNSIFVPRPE
Sequence of Insulin-like growth factor 1 receptor (Homo sapiens) (P08069 741-1367 limits assumed): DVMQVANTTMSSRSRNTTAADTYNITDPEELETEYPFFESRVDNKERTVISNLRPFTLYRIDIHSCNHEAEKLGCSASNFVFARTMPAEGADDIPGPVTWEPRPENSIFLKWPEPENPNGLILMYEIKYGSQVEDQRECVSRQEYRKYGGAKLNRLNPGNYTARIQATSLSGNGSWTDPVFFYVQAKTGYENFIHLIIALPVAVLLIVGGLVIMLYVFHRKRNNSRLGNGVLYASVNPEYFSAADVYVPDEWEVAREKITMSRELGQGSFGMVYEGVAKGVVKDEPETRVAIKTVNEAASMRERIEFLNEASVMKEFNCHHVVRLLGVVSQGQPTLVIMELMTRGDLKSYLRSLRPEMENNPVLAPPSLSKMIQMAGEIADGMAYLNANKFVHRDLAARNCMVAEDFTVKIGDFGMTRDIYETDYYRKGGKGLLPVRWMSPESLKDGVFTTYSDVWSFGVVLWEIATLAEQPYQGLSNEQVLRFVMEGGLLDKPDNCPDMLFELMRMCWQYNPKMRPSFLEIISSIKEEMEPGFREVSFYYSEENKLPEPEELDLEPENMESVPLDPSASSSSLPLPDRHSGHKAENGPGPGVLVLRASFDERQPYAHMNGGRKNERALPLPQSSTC

[17] = target: Tyrosine-protein kinase receptor UFO (Homo sapiens) (UniProt P30530); assay: Inhibition of human Axl assessed as enzyme activity at 1 uM relative to control; design: scale not given: the % may be the effect or the level left
[18] = Oral bioavailability in mouse at 30 mg/kg; assay type: ADME, organism-based; details: in vivo
[19] = target: Tyrosine-protein kinase BTK (Homo sapiens) (UniProt Q06187); assay: Inhibition of human BTK assessed as enzyme activity at 1 uM relative to control; design: scale not given: the % may be the effect or the level left
[20] = target: cGMP-dependent protein kinase 1 (Homo sapiens) (UniProt Q13976); assay: Inhibition of human PRKG1beta assessed as enzyme activity at 1 uM relative to control; design: scale not given: the % may be the effect or the level left
[21] = target: Serine/threonine-protein kinase TBK1 (Homo sapiens) (UniProt Q9UHD2); assay: Inhibition of human TBK1 assessed as enzyme activity at 1 uM relative to control; design: scale not given: the % may be the effect or the level left
[22] = target: Tyrosine-protein kinase ZAP-70 (Homo sapiens) (UniProt P43403); assay: Inhibition of human ZAP-70 assessed as enzyme activity at 1 uM relative to control; design: scale not given: the % may be the effect or the level left
[23] = target: CDK9/cyclin T1 (Homo sapiens) (UniProt O60563+P50750); assay: Inhibition of human CDK9/cyclinT1 assessed as enzyme activity at 1 uM relative to control; assay type: protein-complex assay; design: scale not given: the % may be the effect or the level left
[24] = target: Macrophage colony-stimulating factor 1 receptor (Homo sapiens) (UniProt P07333); assay: Inhibition of human Fms assessed as enzyme activity at 1 uM relative to control; design: scale not given: the % may be the effect or the level left
[25] = target: Serine/threonine-protein kinase 10 (Homo sapiens) (UniProt O94804); assay: Inhibition of human LOK assessed as enzyme activity at 1 uM relative to control; design: scale not given: the % may be the effect or the level left
[26] = target: Tyrosine-protein kinase Lck (Homo sapiens) (UniProt P06239); assay: Inhibition of human Lck assessed as enzyme activity at 1 uM relative to control; design: scale not given: the % may be the effect or the level left
[27] = target: Serine/threonine-protein kinase MRCK beta (Homo sapiens) (UniProt Q9Y5S2); assay: Inhibition of human MRCKbeta assessed as enzyme activity at 1 uM relative to control; design: scale not given: the % may be the effect or the level left
[28] = target: Protein kinase C alpha type (Homo sapiens) (UniProt P17252); assay: Inhibition of human PKCalpha assessed as enzyme activity at 1 uM relative to control; design: scale not given: the % may be the effect or the level left
[29] = target: Fibroblast growth factor receptor 1 (Homo sapiens) (UniProt P11362); assay: Inhibition of human FGFR1 assessed as enzyme activity at 1 uM relative to control; design: scale not given: the % may be the effect or the level left
Sequence of Fibroblast growth factor receptor 1 (Homo sapiens) (P11362 22-822 limits assumed): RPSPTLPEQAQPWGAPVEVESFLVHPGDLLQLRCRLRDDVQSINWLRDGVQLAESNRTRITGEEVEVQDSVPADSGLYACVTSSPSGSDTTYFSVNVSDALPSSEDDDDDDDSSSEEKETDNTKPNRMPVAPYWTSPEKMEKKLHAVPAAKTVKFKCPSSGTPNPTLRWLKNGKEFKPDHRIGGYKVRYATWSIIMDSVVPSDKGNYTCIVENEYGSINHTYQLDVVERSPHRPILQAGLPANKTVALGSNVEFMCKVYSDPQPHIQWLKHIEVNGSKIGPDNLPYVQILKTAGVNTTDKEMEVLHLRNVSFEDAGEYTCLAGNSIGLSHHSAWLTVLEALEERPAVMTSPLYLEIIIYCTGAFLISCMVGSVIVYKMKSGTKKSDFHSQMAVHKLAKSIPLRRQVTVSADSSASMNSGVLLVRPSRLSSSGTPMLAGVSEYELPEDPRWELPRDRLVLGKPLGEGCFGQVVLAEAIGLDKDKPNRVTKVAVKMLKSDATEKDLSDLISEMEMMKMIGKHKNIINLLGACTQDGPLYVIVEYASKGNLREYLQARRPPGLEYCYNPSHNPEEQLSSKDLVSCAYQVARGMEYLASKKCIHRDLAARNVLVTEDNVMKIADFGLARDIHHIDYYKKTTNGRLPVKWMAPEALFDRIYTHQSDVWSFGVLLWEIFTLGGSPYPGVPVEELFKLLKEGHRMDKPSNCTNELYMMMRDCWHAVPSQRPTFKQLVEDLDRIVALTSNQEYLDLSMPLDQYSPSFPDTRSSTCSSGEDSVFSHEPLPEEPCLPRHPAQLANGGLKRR

TAK1/TAB1 (Homo sapiens) = TAK1/TAB1 (Homo sapiens) (UniProt Q15750+O43318); assay: Inhibition of human TAK1-TAB1 assessed as enzyme activity at 1 uM relative to control; assay type: protein-complex assay; design: scale not given: the % may be the effect or the level left
[30] = target: Serine/threonine-protein kinase pim-3 (Homo sapiens) (UniProt Q86V86); assay: Inhibition of human Pim-3 assessed as enzyme activity at 1 uM relative to control; design: scale not given: the % may be the effect or the level left
[31] = target: Serine/threonine-protein kinase PAK 2 (Homo sapiens) (UniProt Q13177); assay: Inhibition of human PAK2 assessed as enzyme activity at 1 uM relative to control; design: scale not given: the % may be the effect or the level left
[32] = Antitumor activity against human LOX cells expressing B-Raf V600E mutant xenografted in nude mouse assessed as tumor growth inhibition at 30 mg/kg qd for 4 days measured on day 3; assay type: functional; details: read-out: TGI
[33] = target: Insulin receptor (Homo sapiens) (UniProt P06213); assay: Inhibition of human IR assessed as enzyme activity at 1 uM relative to control; design: scale not given: the % may be the effect or the level left
[34] = target: Mitogen-activated protein kinase 11 (Homo sapiens) (UniProt Q15759); assay: Inhibition of human p38beta assessed as enzyme activity at 1 uM relative to control; design: scale not given: the % may be the effect or the level left
[35] = target: Rho-associated protein kinase 2 (Homo sapiens) (UniProt O75116); assay: Inhibition of human ROCK-2 assessed as enzyme activity at 1 uM relative to control; design: scale not given: the % may be the effect or the level left
[36] = target: Serine/threonine-protein kinase Nek2 (Homo sapiens) (UniProt P51955); assay: Inhibition of human NEK2 assessed as enzyme activity at 1 uM relative to control; design: scale not given: the % may be the effect or the level left
[37] = target: Ephrin type-A receptor 5 (Homo sapiens) (UniProt P54756); assay: Inhibition of human EphA5 assessed as enzyme activity at 1 uM relative to control; design: scale not given: the % may be the effect or the level left
Sequence of Ephrin type-A receptor 5 (Homo sapiens) (P54756 whole entry): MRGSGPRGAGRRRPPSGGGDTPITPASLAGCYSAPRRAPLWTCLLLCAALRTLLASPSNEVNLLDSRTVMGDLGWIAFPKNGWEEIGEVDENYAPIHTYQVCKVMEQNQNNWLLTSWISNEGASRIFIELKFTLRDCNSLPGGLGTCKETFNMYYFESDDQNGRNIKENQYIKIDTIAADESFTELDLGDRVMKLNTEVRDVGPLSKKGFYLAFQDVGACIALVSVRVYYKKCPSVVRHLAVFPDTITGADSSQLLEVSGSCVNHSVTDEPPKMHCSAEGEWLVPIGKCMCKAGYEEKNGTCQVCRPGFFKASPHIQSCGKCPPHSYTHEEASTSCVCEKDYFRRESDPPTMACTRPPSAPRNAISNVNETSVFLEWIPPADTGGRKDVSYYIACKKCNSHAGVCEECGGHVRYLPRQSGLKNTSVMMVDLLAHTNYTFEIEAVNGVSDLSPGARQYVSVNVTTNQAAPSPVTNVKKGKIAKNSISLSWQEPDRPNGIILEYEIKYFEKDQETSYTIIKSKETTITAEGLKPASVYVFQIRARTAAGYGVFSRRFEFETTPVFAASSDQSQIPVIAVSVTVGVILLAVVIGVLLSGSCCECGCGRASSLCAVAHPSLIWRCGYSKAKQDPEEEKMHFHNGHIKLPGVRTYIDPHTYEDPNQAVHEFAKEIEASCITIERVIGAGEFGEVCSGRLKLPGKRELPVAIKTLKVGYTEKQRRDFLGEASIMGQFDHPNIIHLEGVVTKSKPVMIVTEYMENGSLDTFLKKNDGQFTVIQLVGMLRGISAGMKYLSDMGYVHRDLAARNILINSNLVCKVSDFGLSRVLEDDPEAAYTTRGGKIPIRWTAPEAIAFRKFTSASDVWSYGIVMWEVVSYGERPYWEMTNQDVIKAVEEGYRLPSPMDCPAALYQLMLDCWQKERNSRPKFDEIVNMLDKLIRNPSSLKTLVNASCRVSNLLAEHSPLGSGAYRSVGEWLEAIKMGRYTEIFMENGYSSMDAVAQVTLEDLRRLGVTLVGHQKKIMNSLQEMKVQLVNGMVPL

[38] = target: Cyclin-dependent kinase 1/cyclin B1 (Homo sapiens) (UniProt P06493+P14635); assay: Inhibition of human CDK1/cyclinB assessed as enzyme activity at 1 uM relative to control; assay type: protein-complex assay; design: scale not given: the % may be the effect or the level left

Activity [1]: 103%
Activity [2]: 112%
Activity [3]: 85.5%
Activity [4]: 100%
Activity [5]: 121%
Activity [6]: 91.5%
Activity [7]: 116%
Activity [8]: 100%
Activity [9]: 128%
Activity [10]: 99.5%
Activity [11]: 112%
Activity [12]: 94.5%
Activity [13]: 99%
Activity [14]: 100%
Activity [15]: 101%
Activity [16]: 108%
Activity [17]: 93%
bioavailability [18]: 60%
Activity [19]: 102%
Activity [20]: 106%
Activity [21]: 98%
Activity [22]: 112%
Activity [23]: 104%
Activity [24]: 99%
Activity [25]: 40.5%
Activity [26]: 87%
Activity [27]: 104%
Activity [28]: 97%
Activity [29]: 110%
Activity (TAK1/TAB1 (Homo sapiens)): 95.5%
Activity [30]: 97%
Activity [31]: 114%
Activity [33]: 99.5%
Activity [34]: 110%
Activity [35]: 114%
Activity [36]: 116%
Activity [37]: 103%
Activity [38]: 103%
Compound: CCCS(=O)(=O)Nc1cccc(Nc2ccc3ncn(C)c(=O)c3c2)c1C#N
inhibition in vivo at 30 mg/kg [32]: 65%
